Measurements as given in patent US8809344B2, “Compounds, compositions, and methods for control of hepatitis C viral infections” (priority 2008, dated 2014).

Tests used:
Assay type in all cases: cell-based
[1] = Neutral red dye uptake cytotoxicity assay; settings: human, Experiment 3
Method: (§1) Inhibition of HCV replication by compound AP0080978 (enantiomer 2 from Example 1) was also assayed by exposing cells harboring either HCV genotype 1a, HCV genotype 1b, HCV genotype 2a replicons. […] Final DMSO percentage was 1% in a total volume of 1 ml. After a 72 hour treatment period, total RNA was extracted, quantified via RiboGreen™ assay (Invitrogen-Molecular Probes, Eugene, Oreg., USA), and equivalent amounts of RNA were subjected to quantitative RT-PCR to quantify HCV RNA levels. Activity against genotype 1b was re-confirmed using Clone II cells (U.S. Pat. No. 7,049,428) that contain a stable subgenomic replicon (Con1 strain) with a Arg 1164 Gly adaptive mutation that is distinct from the Ser 1179 Ile adaptive mutation present in Clone VI cells. In this assay, cells were seeded into 96-well plates and treated in quadruplicate with varying concentration of compounds for 72 hours. For each replicate culture, HCV RNA levels were measured by blot hybridization and normalized to β-actin RNA levels. Cytotoxicity was measured using an established neutral red dye uptake assay (Korba and Gerin (1992) Antiviral Res 19:55; Okuse et al (2005) Antiviral Res 65: 23). […] Activity and toxicity against genotype 2a was evaluated in Huh7 cells harboring a stable hRluc-containing subgenomic genotype 2a replicon containing sequence from both J6 and JFH1 strains. […]

[2] = system: stable genotype 1b subgenomic replicon (Con1 strain); assay: Clone II cells, HCV RNA by blot hybridization normalized to β-actin RNA; settings: Hepatitis C virus, 72 h
Method: as §1

[3] = system: subgenomic genotype 2a replicon (J6 and JFH1 strains); assay: Genotype 2a hRluc replicon assay in Huh7 cells, Renilla luciferase readout; settings: Hepatitis C virus, Huh-7, 48 h
Method: as §1

[4] = system: HCV genotype 1b subgenomic replicon (Con1 strain); assay: microbe, parasite or virus in culture; settings: Hepatitis C virus; 24 hours post-treatment; Renilla luciferase; Huh7.5 cells
Excerpt: The replicon used in these studies was a transient genotype 1b subgenomic replicon generated from the Con1 strain. In this replicon, the HCV internal ribosome entry site (IRES) within the 5′ non-translated region (NTR) drives expression of the first 32 amino acids of the core protein fused to humanized Renilla luciferase (hRluc). The encephalomycarditis IRES lies 3′ to the hRluc open reading frame (ORF) and drives expression of non-structural (NS) proteins NS3 through NS5B. Huh7.5 cells (U.S. patent application Ser. No. 10/534,571) harboring this replicon were seeded into 96-well plates at 20,000 cells per well in medium containing 10% FBS, 1× penicillin/streptomycin, 1× non-essential amino acids, and 100 ng/ml Fungizone. After a four hour attachment period, compound was added to wells using a five point 3-fold serial dilution series with four replicate treatments per dose. Final DMSO percentage was 1% in a total volume of 200 ul. Compound-mediated HCV inhibition and toxicity were assayed 24 hours post-treatment using Renilla luciferase readout and an ATP viability assay (CellTiter-Glo, Promega, Madison, Wis., USA), respectively.

Structure (SMILES): O=C(NCc1cccs1)c1nn2c(c1Cl)N[C@H](c1ccco1)C[C@@H]2C(F)(F)F (single isomer, unassigned) [Compound 80978]
- CC50 at 72 h [1]: > 20 µM
- EC50 [2]: 7.3 µM
- EC50 [3]: > 25 µM
- EC50 [4]: 1.8 µM
